Reference: patent US10399931B2, “Octahydroanthracene compound, preparation method and application thereof” (SHANDONG XINHUA PHARMACEUTICAL CO., LTD., priority 2016, dated 2019)
“Also recorded” adds a separate entry of the source.

What was measured:
Assay type in all cases: in vivo
[1] = test system: APP/PS1 double transgenic AD model mice; experiment: Behavioral experiments (new object discrimination, Y-maze, Morris water maze, nesting, social interaction); conditions: 14 days or 3 months
Protocol: The drugs were administered three days after the adaptive feeding. Peanut oil was used as the solvent. The drug was intragastric administered once a day for 15 days. On the 6th to 9th day after the administration, the new object identification test was performed. On the 10th day, the Y-maze test was performed. On the 11th to 15th day, the Morris water maze test was performed to determine the improvement of learning and memory. The administration of the drugs was continued during the behavioral experiment until the animals were sacrificed (16th day). The experimental device is a wooden square open field with a size of 50 cm×50 cm×15 cm. […] The mouse was placed back to the objects at equal distance from the two identical objects on the other side of the experimental device, and the time (tA1, tA2) used to explore the two objects within 5 minutes was recorded. After 1 h, A2 was replaced with a new object (B) and the mouse was placed in the test site again, the time (tA1, tB) used to explore the two objects was recorded. After 24 h, the object B was replaced with a new object (C), and the mouse was placed in the test site again, the time (tA1, tC) used to explore the two objects was recorded. […] The preferential index and the discrimination index of the new objects for each group of the experimental mice were calculated separately. […]

APP/PS1 mice = experiment: Transmission electron microscopy of hippocampal CA1 neurons and synapses
APP/PS1 transgenic mice = experiment: Morris water maze test (oriented navigation and probe test); conditions: for Number of times traversing the safe platform vs model group / Percentage of the swimming distance in the target quadrant vs model group / Swimming time in the target quadrant vs model group: probe test
Protocol: The drugs were administered three days after the adaptive feeding. Peanut oil was used as the solvent. The drug was intragastric administered once a day for 15 days. On the 6th to 9th day after the administration, the new object identification test was performed. On the 10th day, the Y-maze test was performed. On the 11th to 15th day, the Morris water maze test was performed to determine the improvement of learning and memory. The administration of the drugs was continued during the behavioral experiment until the animals were sacrificed (16th day).
The experimental device includes a black circular pool with a diameter of 100 cm and a height of 40 cm, and a white platform (safe platform) having a diameter of about 10 cm. The location of the safe platform could be moved. Morris Water Maze Video Detection and Analysis System was provided by the Institute of Materia Medica, China Academy of Medical Sciences. One day before the experiment, water was injected into the black circular pool (water temperature 22±1° C.), and white pigment was added to mix uniformly. The water surface was usually about 1 cm higher than the top of the safe platform. The pool was divided into four quadrants I, II, III and IV, and the safe platform was usually placed in the middle of the quadrant IV. The experiment was divided into two parts: (1) Oriented navigation: the animal grouping was input into a computer software in advance. The position of the safe platform was kept unchanged during the experiment. During the test, the experimental animal facing the pool wall was placed in the water from different inlets, and the computer simultaneously collected data and recorded the time to find the safe platform (escape latency). Data collection automatically stopped when the animal stayed on the safe platform for 10 s. The data acquisition time of the mouse was 60 s. If the animal could not find the safe platform within the specified time, the escape latency was recorded as 60 s. At the same time, the operator induced the animal to reach the safe platform and stay for 10 s. The animal was trained twice a day for 4 consecutive days. (2) Probe test: after the oriented navigation test is completed, the safe platform is removed and the animal was placed in the pool free to explore for 60 s. The camera system automatically recorded the time and distance of the experimental animal swimming in the quadrant of the safe platform within the specified time and the number of times passing through the location of the safe platform.

## CC1(C)CCC(C)(C)c2c1cc1c(c2NC(=O)c2ccc(NC(=O)NCCN)cc2)C(C)(C)CCC1(C)C [OAB-14, 1-(2-amino) ethyl-3-{4-[(1,1,4,4,5,5,8,8-octamethyl-1,2,3,4,5,6,7,8-octahydro-9-anthryl)carbamoyl]phenyl} urea]
[1]; 50, 100 and 200 mg/kg intragastric, 8-month-old APP/PS1 mice
  Learning and memory disorders in new object discrimination, Y-maze, Morris water maze, nesting and social interaction tests: dose-dependently improve
[1]; high-dose group
  Behavioral effect of the high-dose group compared with donepezil and blank groups: significantly stronger than that of the donepezil group and completely restored to the level of the blank control group; also recorded: significantly stronger than the donepezil group and completely recovered to the level of the blank group
APP/PS1 mice; 100 mg/kg group
  Synaptic ultrastructure of the hippocampus (TEM): significantly improved
APP/PS1 mice; 200 mg/kg group
  Synaptic ultrastructure of the hippocampus (TEM): significantly improved
APP/PS1 mice; dose-dependent, especially 200 mg/kg group
  Ultrastructure of hippocampal CA1 neurons (TEM): significantly improved
APP/PS1 transgenic mice; 100 mg/kg, fourth day of training
  Total swimming distance vs model group: significantly reduced
APP/PS1 transgenic mice; 100 mg/kg, third and fourth days of training
  Escape latency vs model group: significantly reduced
APP/PS1 transgenic mice; 200 mg/kg, from the second day of training
  Escape latency vs model group: significant decrease
APP/PS1 transgenic mice; 200 mg/kg, from the third day of training
  Total swimming distance vs model group: significant decrease
APP/PS1 transgenic mice; 100 mg/kg
  Number of times traversing the safe platform vs model group: significantly increased
  Percentage of the swimming distance in the target quadrant vs model group: significantly increased
  Swimming time in the target quadrant vs model group: significantly increased
APP/PS1 transgenic mice; 200 mg/kg
  Number of times traversing the safe platform vs model group: significantly increased
  Percentage of the swimming distance in the target quadrant vs model group: significantly increased
  Swimming time in the target quadrant vs model group: significantly increased
APP/PS1 transgenic mice; water maze oriented navigation, overall
  Spatial learning and memory disorders of the APP/PS1 mice: significantly improved
